{"source": "patent US8481263B2", "about": "“Bead-ligand-nascent protein complexes” (Ambergen, priority 2007, dated 2013)", "target": "T1, PKCα (Homo sapiens, UniProt P17252)", "T1 construct": "isolate and photo-release endogenous PKCa from the undiluted detergent fractionated HeLa cell extracts; endogenous in cells; host or cells: HeLa cells (ATCC)", "experiment": "PKCα sub-cellular translocation measured by kinase activity after photocleavable antibody isolation", "type": "cell-based", "details": "cultured HeLa cells stimulated with 200 nM PMA for 5 min; detergent fractionated; kinase activity of PC-antibody isolated PKCα; n=4", "procedure": "Cultured HeLa cells (ATCC; Manassas, Va.) were stimulated for 5 min with 200 nM Phorbol-12-Myristate-13-Acetate (PMA; EMD Biosciences, Inc., San Diego, Calif.) and subsequently detergent fractionated into sub-cellular compartments according to reported procedures [Ramsby et al. (1994) Electrophoresis 15, 265-277; Ramsby & Makowski. (1999) Methods Mol Biol 112, 53-66; Chiang et al. (2000) J Biochem Biophys Methods 46, 53-68]. PMA is a potent activator of PKCα and is well known to cause translocation of the kinase from the cytosolic to the membrane sub-cellular compartments [Ross & Joyner. (1997) Endothelium 5, 321-332; Bazan & Rapoport. (1996) J Pharmacol Toxicol Methods 36, 87-95; Yazlovitskaya & Melnykovych. (1995) Cancer Lett 88, 179-183].\nA photocleavable antibody conjugated solid affinity matrix was prepared and used to isolate and photo-release the antigen into solution essentially as described in Example 2 except that in this case, a photocleavable anti-IgG secondary antibody was used to immobilize the unlabeled primary antibody onto the solid affinity matrix. This antibody affinity matrix was used to isolate and photo-release endogenous PKCa from the undiluted detergent fractionated HeLa cell extracts. […]"}
{"compound": "CCCCCCCCCCCCCC(=O)O[C@@H]1[C@@H](C)[C@@]2(O)[C@@H](C=C(CO)C[C@]3(O)C(=O)C(C)=C[C@@H]23)[C@@H]2C(C)(C)[C@]12OC(C)=O", "note": "[PMA, Phorbol-12-Myristate-13-Acetate]", "values": [{"measurement": "PKCα distribution, cytosol", "result": "16±4", "unit": "%"}, {"measurement": "PKCα distribution, membrane", "result": "84±3", "unit": "%"}]}
